Measured values from US20040048900A1, “Nicotine and/or nicotine agonists for the treatment of general anesthetic effects and side effects” (priority 2002, published 2004).
Several values for one entry are separate records, joined by “and”; a condition that tells them apart may be missing. Equal entries are not always repeated. Entries after “also recorded” stand apart in the source; their conditions may differ.

Assays:
[1] = test system: analgesic action of nicotine; details: Bitner, 1998; cited from earlier work
[2] = test system: ^3H-norepinephrine release from female mouse lumbar spinal cord slice; assay: 3H-norepinephrine release from superfused spinal cord slice; details: isoflurane 0.38%
Description: Spinal Cord Slice Preparation: The spinal cord was dissected from the mouse. Under CO2 narcosis the mouse was decapitated. The spinal column was removed and placed into cold dissection solution where the spinal cord was removed with a dissection microscope. The lumbar section of the cord was isolated and imbedded in a 3% low melting point agar (Fisher Scientific) block made in dissection solution. Transverse 400 micrometer slices were made using a Vibratone VT1000S slicing apparatus (Leica, Whetzlar, Germany). Slicing was performed in ice cold Krebs solution bubbled with 5%CO2/95%O2.
The cord slices were incubated in a solution of 1 ml of Krebs solution and 10 ul of 1-[7,8-^3H] noradrenaline in a closed environment surrounded by Krebs solution bubbled with CO2/O2 for 30 minutes. The slices were transferred into a superfusion and stimulation chamber (Warner Instruments Inc.,) where Krebs solution was allowed to perfuse over them for 30 minutes at a rate of 0.5 ml/min. The superfusion chamber thermostatically temperature controlled at 37° C. The solutions were pumped to the chamber at a constant rate of 0.5 ml/min using a Kwik-Pump 290 (Long). Following a 30 minute period for equilibration, collections were taken every 1-2.5 minutes. Ecolite scintillation fluid (15 ml) was then added to each collection vial. The samples were analyzed for radioactivity (CPM) using a Packard TRI CARB 2100 TR scintillation counter (Meriden, Conn.).
Dissection Krebs Solution (mM) NaCl 125, KCl 2.5, NaHCO3 26, NaH2PO4-H2O1.25, MgCl2 6,CaCl2 1.5, glucose 2.5. Perfusion Krebs Solution (mM) NaCl 125, KCl 2.5, NaHCO3 26, NaH2PO4—H2O 1.25, MgCl2 1,CaCl2 2, glucose 2.5.
After incubation with ^3H-norepinephrine, the cord slices were perfused with buffer for 30 minutes at 0.5 ml/minute. After equilibration, samples containing released ^3H-norepinephrine were collected at 2.5 minute intervals. After determination of baseline release, the slices were stimulated with 1 mM nicotine in the perfusion buffer.

mice = test system: mice
Description: Nicotinic acetylcholine receptors are involved in the mechanism of isoflurane hyperalgesia, and nicotinic inhibition could be the initiating event.
How could nicotinic inhibition cause hyperalgesia? Nicotine is thought to exert its analgesic action by increasing the release of norepinephrine, serotonin and acetylcholine onto the relay neurons in the dorsal horn of the spinal cord (Rao, 1996; and Reuter, 2000). Isoflurane might reduce pain threshold by inhibiting nicotinic acetylcholine receptors tonically active in potentiating the release of norepinephrine, serotonin and/or acetylcholine. To test the role of the α-adrenergic system, mice were treated systemically with the adrenergic neurotoxin DSP-4 to deplete norepinephrine levels (Jonsson, 1981). The DSP-4 mice 14 days after treatment were tested for HPWL in the presence of isoflurane alone or isoflurane with nicotine pretreatment (see methods).
To test the role of muscarinic receptors for acetylcholine, mice were treated with the nonspecific muscarinic antagonist, atropine. A cholinergic neurotoxin could not be used for these studies, because removing all cholinergic neurons would have nicotinic in addition to muscarinic effects. Instead, postsynaptic muscarinic blockade was used. ACh causes analgesia, at least in part due to muscarinic stimulation (Chiari, 1999; Smith, 1989; and Lavand'homme, 1999). […] High concentrations of atropine can block nicotinic acetylcholine receptors as well (Zwart, 1997).

[3] = biological target: T1, human α4β2 nAChRs expressed in Xenopus oocytes (Homo sapiens, UniProt P17787+P43681); assay: Two-microelectrode voltage clamp of ACh-activated currents in Xenopus oocytes; type: cell-based
T1 construct: expressed in transfected cells; host or cells: Xenopus laevis oocytes injected with cRNA (1:1 α4 to β2)
Protocol: The human α4 and β2 type nAChRs were in a pSP64 expression vector. Standard techniques were used to linearize the vectors and use them as templates to make cRNA using SP6 as the polymerase. The human nicotinic clones were a gift from Dr. Jon Lindstrom, Ph.D. (Department of Neuroscience, University of Pennsylvania, Philadelphia, Pa.).
Xenopus laevis oocytes were removed from the females and defolliculated with collagenase. After the oocytes rested for 24 hours in L-15 oocyte medium, about 10 ng of a 1:1 ratio of α4 to β2 cRNA were injected into individual oocytes. A manual injector was used for this process (Nanoject; Drummond Scientific, Broomall, Pa.). The oocytes were incubated for 2-5 days in ND-96 medium (NaCl 96 mM, KCl 2 mM, MgCl2 1 mM, CaCl2 H2O 1.8 mM, HEPES 5 mM, Na-pyruvate 2.5 mM, theophylline 0.5 mM, and 10mg/L of gentamicin, adjusted to pH 7.5).
Whole oocytes were used to record currents using a Gene-Clamp 500 two-microelectrode voltage-clamp amplifier with an active ground (Axon Instruments, Inc., Foster, Cailf.). The recording electrodes were pulled from glass capillary tubing (Drummond, Broomall, Pa.) to obtain a resistance between 1 and 5 MΩ and filled with 3M KCl. Ba^2 Ringer's solution was used as the extracellular solution in order to avoid current amplification by calcium activated chloride currents (115 mM NaCl, 2.5 mM KCl, 1.8 mM BaCl2, 10 mM HEPES, 1 μM atropine, pH 7.4). Atropine was included to avoid activation of intrinsic muscarinic receptors. Experiments were performed at room temperature. Isoflurane was prepared from a saturated solution by serial dilution. Concentrations were verified by gas chromatography.
Oocytes were tested at a membrane potential of −60 mV. Bolus application of the agonist +/− indicated antagonist(s) was applied at a rate of 4 ml/min for a 2 second application.
Antagonists were pre-applied for 2 minutes prior to activation. Concentration response curves were made from the percent change in peak current from ACh activation in the presence of antagonist(s), compared to ACh alone. As the ACh concentration at central neuronal nAChRs is unknown, 1 mM ACh (saturating) was used to detect inhibition by isoflurane and mecamylamine experiments with mecamylamine. ACh 2 μM was used to detect potentiation by nicotine. Currents were measured in 5-8 cells for each data point. Clampex 7 (Axon instruments, Foster City, Calif.) was used for data acquisition.
Microcal Origins 5.0 (Microcal, Northampton, Mass.) was used for statistical calculations and graphical presentation. The in vitro data were fit to a modified Hill equation, y=100/(1+(x/IC50)^n), where IC50 is the concentration of drug at which of 50% of the response is inhibited and n is the Hill coefficient.

[4] = test system: β2 nicotinic knockout male C57/B16 mice; assay: HPWL in β2 nicotinic knockout mice; type: in vivo; details: vs wild type controls; 0.28% isoflurane, p<0.001
Description: The subunit composition of the nicotinic receptors responsible for the analgesic effects of nicotinic agonists is controversial. […] Nicotinic antagonists specific for α7 containing nicotinic achetylcholine receptors can be analgesic in some settings (Damaj, 2000). […] The importance of the nicotinic β2 subunit in male C57/B16 mice and their generation matched wild type controls have been tested (a gift from J. P. Changeux, Institute Pasteur).

female mice = assay: MAC and LORR of isoflurane; type: in vivo
Description: Isoflurane causes hyperalgesia in female mice. […] Increased HPWL occurred at concentrations above 0.86% that were associated with sedation. MAC in these animals was 1.5±0.1% and LORR (mean partial pressures bracketing postural response and lack of response to placing the animal in a supine position) occurred at 0.59 +0.2% isoflurane.
5-28 mice were studied per group.

male and female mice = assay: HPWL by gender, estrus stage, castration, oophorectomy; type: in vivo; details: isoflurane
Protocol: The ovary and oviduct was tied with a double 3.0 polysorb suture. The fascia was closed with 3.0 polysorb and the skin with 4.0 nylon. The procedure was repeated on the other side. The mouse was injected with buprenophine 1 mg/kg prior to emergence for pain control.
Estrogen can directly modulate nicotinic receptors at micromolar concentrations (Paradiso, 2001; Nakazawa, 2001; and Damaj, 2001). Estrogen receptors are co-localized with both nicotinic and muscarinic receptors (Hosli, 2001). Progesterone is inhibitory at nicotinic acetylcholine receptors (Paradiso, 2001; and Damaj, 2001). HPWL was tested at different phases of the female estrus cycle (FIG. 14). […] Oophorectomy (see methods) was performed on six week old female mice. After allowing two weeks for hormonal depletion, and surgical recovery HPWL was again tested.
Furthermore, testosterone was tested to see if it induced a state resistant to isoflurane hyperalgesia. Male mice were castrated and after two weeks for surgical recovery and hormone depletion, hyperalgesia in response to isoflurane was tested. […] In addition to the classical “female hormones”, female mice also have testosterone that is made by the ovary (Halling, 1989). […] Testosterone levels in females decrease after oophorectomy.

T1 sequence (P43681 29-627 limits assumed): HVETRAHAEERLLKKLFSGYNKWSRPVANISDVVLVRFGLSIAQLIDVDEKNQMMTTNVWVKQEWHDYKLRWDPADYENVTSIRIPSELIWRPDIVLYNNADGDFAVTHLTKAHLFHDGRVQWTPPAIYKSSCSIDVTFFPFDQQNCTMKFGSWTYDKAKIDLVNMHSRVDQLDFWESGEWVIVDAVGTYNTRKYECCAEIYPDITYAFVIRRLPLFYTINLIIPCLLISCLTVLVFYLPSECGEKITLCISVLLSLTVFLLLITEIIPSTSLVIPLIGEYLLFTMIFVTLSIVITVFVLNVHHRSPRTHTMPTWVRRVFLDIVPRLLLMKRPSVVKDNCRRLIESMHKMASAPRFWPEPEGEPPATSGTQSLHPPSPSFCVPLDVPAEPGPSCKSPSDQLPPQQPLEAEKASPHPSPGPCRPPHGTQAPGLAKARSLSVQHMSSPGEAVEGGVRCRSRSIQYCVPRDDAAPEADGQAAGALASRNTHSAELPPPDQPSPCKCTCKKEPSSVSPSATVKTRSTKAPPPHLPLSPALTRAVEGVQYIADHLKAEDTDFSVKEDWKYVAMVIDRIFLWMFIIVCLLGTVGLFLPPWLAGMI
T1 sequence (P17787 26-502): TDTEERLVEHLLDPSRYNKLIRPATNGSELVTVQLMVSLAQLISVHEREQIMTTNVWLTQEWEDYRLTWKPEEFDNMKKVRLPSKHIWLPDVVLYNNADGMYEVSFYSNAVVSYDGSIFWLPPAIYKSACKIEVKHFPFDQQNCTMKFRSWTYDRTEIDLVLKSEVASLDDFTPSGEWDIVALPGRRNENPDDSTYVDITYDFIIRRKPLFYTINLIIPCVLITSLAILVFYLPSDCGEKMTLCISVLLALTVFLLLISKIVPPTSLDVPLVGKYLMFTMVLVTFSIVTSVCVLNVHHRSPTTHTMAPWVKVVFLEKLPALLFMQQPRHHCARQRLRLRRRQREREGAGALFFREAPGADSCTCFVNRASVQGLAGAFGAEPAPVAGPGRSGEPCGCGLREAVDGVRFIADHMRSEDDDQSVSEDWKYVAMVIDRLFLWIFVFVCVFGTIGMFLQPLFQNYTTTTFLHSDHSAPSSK

SMILES	effect on the analgesic action of nicotine [1]	basal norepinephrine release [2]	nicotine facilitated norepinephrine release ([2]; 1 mM nicotine)	hyperalgesic effect after norepinephrine depletion (mice; isoflurane, mice 14 days after DSP-4)	isoflurane concentration that caused maximal hyperalgesia (mice; mouse, in vivo) [%]	mode of antagonism at heteromeric nAChRs [3]	IC50 ([3]; 1 mM ACh, −60 mV, room temperature, read-out: IC50 for inhibition of α4β2 nAChR) [µM]	hyperalgesic effect of isoflurane in β2 nicotinic knockout mice [4]	MAC (female mice; isoflurane in these mice)	LORR (female mice; mean partial pressures bracketing postural response and lack of response to supine placement)	hyperalgesic response after oophorectomy (male and female mice; female mice two weeks after oophorectomy)	hyperalgesic effect by estrus stage (male and female mice; high estrogen (stages 2 and 3) and high progesterone (stage 5))	hyperalgesic response in male mice (male and female mice; intact males)	hyperalgesic response in castrated males (male and female mice; two weeks after castration)
C[N+](C)(C)CCCCCC[N+](C)(C)C [Hexamethonium]	has no effect on the analgesic action of nicotine	–	–	–	–	–	–	–	–	–	–	–	–	–
FC(F)OC(Cl)C(F)(F)F (centres unmarked) [isoflurane]	–	basal norepinephrine release was reduced	no facilitation by nicotine	no hyperalgesic effect at any subanesthetic concentration	0.38	non-competitive antagonists	44	clearly reduced in these animals, but not absent; also recorded: Hyperalgesia was reduced	1.4% and 1.5±0.1%	0.59 +0.2%	more pronounced	less hyperalgesic effect during these stages	less than that in females	increased hyperalgesic responses to isoflurane compared to intact males
